Test results published in patent publication US6025390A, “Heteroaromatic pentadienoic acid derivatives useful as inhibitors of bone resorption” (SmithKline Beecham SpA, priority 1996, dated 2000).

biological target: Bafilomycin-Sensitive ATPase in Chicken Osteoclasts; experiment: Inhibition of bafilomycin-sensitive ATPase activity in purified membrane vesicles (Pi release, malachite green); format: biochemical; details: chicken osteoclast membranes
Experimental: Preparation of crude bone microsomes from calcium-starved egg-laying hens.
Vesicles were prepared from medullar bone obtained from tibiae and femurs of egg-laying hens which were calcium-starved for at least 15 days. Briefly, bone fragments were scraped with a 24 scalpel blade, suspended in 40 ml of isolation medium (0.2M sucrose, 50 mM KCl, 10 mM Hepes, 1 mM EGTA, 2 mM dithiotheitrol, pH 7.4) and filtered through a 100 μm pore size nylon mesh. The whole procedure was performed at 4° C. After homogenisation in a potter (20 strokes) in 40 ml of isolation medium an initial centrifugation (6,500×gmax ×20 min) was performed to remove mitochondria and lysosomes. The supernatant was centrifuged at 100,000×gmax for 1 hr and the pellet was collected in 1 ml of isolation medium, divided into 200 μl aliquots, immediately frozen in liquid nitrogen and stored at […]. The protein content was determined using a Biorad colourimetric kit according to Bradford [M. Bradford, Anal. Biochem., 72, 248 (1976)]. For the proton transport assay, 5-10 μl of membranes were used.
Purification of osteoclast membranes. 1 ml of crude microsomal vesicles prepared above were applied (about 0.2 ml per tube) on the top of a sucrose step-gradient consisting of 3.5 ml of 15%, 30% and 45% (w/w) sucrose in isolation medium and centrifuged at 280,000 gmax for 2 hours (SW 41 Ti rotor). After centrifugation the 30-45% sucrose interfaces were collected, diluted approx. 20-fold in isolation medium and pelletted at 100,000 gmax for 1 hour (SW 28 rotor). The pellet was then resuspended in 1 ml of isolation medium, aliquoted and frozen in liquid N2 and stored at -80° C. until used.
Inhibition of bafilomycin-sensitive ATPase activity was assessed in purified membrane vesicles by measuring the release of inorganic phosphate (Pi) during 30 min of incubation at 37° C. in a 96-well plate either in the presence or in the absence of bafilomycin A1. The reaction medium contained 1 mM ATP, 10 mM HEPES-Tris pH 8, 50 MM KCl, 5 uM valinomycin, 5 uM nigericin, 1 mM CDTA-Tris, 100 uM ammonium molybdate, 0.2M sucrose and membranes (20 ug protein/ml). The reaction was initiated by MgSO4 (8-arm pipette) and stopped, after 30 min, by addition of 4 volumes of the malachite green reagent (96-arm pipette) prepared according to Chan [Anal. Biochem. 157, 375 (1986)]. Absorbance at 650 nm was measured after 2 min using a microplate reader. Results are expressed as μmol (Pi)×mg protein^-1 ×hour^-1 and, for each experiment, represent the mean±sem of triplicates.

Row | Structure (SMILES) | IC50 [µM]
1 | CO/C(=C\C=C\c1cc2ccccc2o1)C(=O)NC1CC(C)(C)NC(C)(C)C1 [Example 3, (2Z,4E)-5-(Benzofuran-2-yl)-2-methoxy-N-((2,2,6,6-tetramethyl)-piperidin-4-yl)-2,4-pentadienamide] | 8.6
2 | CO/C(=C\C=C\c1cc2ccccc2o1)C(=O)NC1CC(C)(C)N(C)C(C)(C)C1 [Example 5, (2Z,4E)-5-(Benzofuran-2-yl)-2-methoxy-N[(1,2,2,6,6-pentamethyl)-piperidin-4-yl]-2,4-pentadienamide] | 11
3 | CO/C(=C\C=C\c1cc2cc(Cl)ccc2o1)C(=O)NC1CC(C)(C)N(C)C(C)(C)C1 [Example 8] | 0.5
4 | CCN(CC)CCCNC(=O)/C(=C/C=C/c1cc2cc(Cl)ccc2o1)OC [Example 9, (2Z,4E)-5-(5-Chlorobenzofuran-2-yl)-N-(3-diethylaminopropyl)-2-methoxy-2,4-pentadienamide] | 10
5 | CO/C(=C\C=C\c1cc2ccccc2s1)C(=O)NC1CC(C)(C)N(C)C(C)(C)C1 [Example 12, (2Z,4E)-5-(Benzothiophen-2-yl)-2-methoxy-N-[(1,2,2,6,6-pentamethyl)-piperidin-4-yl]-2,4-pentadienamide] | 10.6

tested on: osteoclast cultures; experiment: not given; details: cited from earlier work

Row | Structure (SMILES) | inhibition of bone resorption
6 | CO/C1=C\C(C)=C\[C@@H](C)[C@@H](O)[C@@H](C)C/C(C)=C/C=C/[C@H](OC)[C@@H]([C@@H](C)[C@@H](O)[C@H](C)[C@@]2(O)C[C@@H](O)[C@H](C)[C@@H](C(C)C)O2)OC1=O [bafilomycin A1] | able to inhibit bone resorption

tested on: osteoclast proton pump; experiment: not given; details: avian osteoclast membrane vesicles, ATP-driven acidification; cited from earlier work

Row | Structure (SMILES) | inhibition of proton transport
7 | CCN1C(=O)C=CC1=O [N-ethylmaleimide] | inhibited
8 | Cc1nc2c(OCc3ccccc3)cccn2c1CC#N [SCH 28080] | not inhibited
9 | CO/C1=C\C(C)=C\[C@@H](C)[C@@H](O)[C@@H](C)C/C(C)=C/C=C/[C@H](OC)[C@@H]([C@@H](C)[C@@H](O)[C@H](C)[C@@]2(O)C[C@@H](O)[C@H](C)[C@@H](C(C)C)O2)OC1=O [bafilomycin A1] | inhibited
10 | COc1ccc2[nH]c([S+]([O-])Cc3ncc(C)c(OC)c3C)nc2c1 (stereo not drawn) [omeprazole] | not inhibited
11 | C[C@@H]1O[C@@H](O[C@H]2C[C@@H](O)[C@]3(CO)[C@H]4[C@H](O)C[C@]5(C)[C@@H](C6=CC(=O)OC6)CC[C@]5(O)[C@@H]4CC[C@]3(O)C2)[C@H](O)[C@H](O)[C@H]1O [ouabain] | not inhibited
12 | [Na+].[Na+].[Na+].[O]=[V]([O-])([O-])[O-] [sodium orthovanadate] | not inhibited
